Results on 8 compounds are retold here after ChEMBL document CHEMBL1201862, “PubChem BioAssay data set” (2004).

Common to all, as to assay: inhibition of tumour cell growth, NCI panel, 48 h
In assay [1] the test system is A549.
Assay [2] relates to COLO 205.
Assay [3] concerns EKVX.
Assay [4] has as its system HCC 2998.
Assay [5] concerns LOX IMVI.
The test system of assay [6] is MDA-N.
The subject of assay [7] is MOLT-4.
Assay [8] relates to Malme-3M.
Assay [9] relates to NCI-H460.
The subject of assay [10] is RPMI-8226.
Assay [11] has as its system SF-268.
For assay [12], the system named is SF-295.
In assay [13] the test system is SF-539.
The test system of assay [14] is SK-OV-3.
For assay [15], the system named is SN12C.
Assay [16] deals with SNB-75.
Assay [17] relates to SW-620.
The subject of assay [18] is TK-10.
Assay [19] deals with UACC-62.

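Dose response: 5 concentrations. Exposure: 48 h. Format: 96-well plates. Endpoint: linear interpolation; highest concentration if not reached. Here, GI50 denotes the concentration required for 50% inhibition of growth.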 Active and inactive are the calls of the source. No stated cut-off is given here; in the data, active = GI50 up to about 1.1 µM and inactive = higher. Bounds are passed on as bounds.

Regarding `COc1cc(OC)cc(-c2cc(=O)c3c(OC)c(OC)c(OC)c(OC)c3o2)c1`, the GI50 in assay [1] is 33.8 µM (inactive); in [2], 16.3 µM (inactive); in [3] it was 29.2 µM (inactive); in assay [4], 31.7 µM (inactive); in assay [5] it was 35.5 µM (inactive); in assay [6], 41.2 µM (inactive). The GI50 was 18.3 µM (inactive) in [7]; 31.6 µM (inactive) in assay [8]; 29 µM (inactive) in [9]; 16.9 µM (inactive) in [10]; 29.6 µM (inactive) in [11]; 23 µM (inactive) in assay [12]. Further, the GI50 was 80 µM (inactive) in [13]; 5.93 µM (inactive) in [14]; 26.4 µM (inactive) in assay [15]; 20 µM (inactive) in assay [16]; 35.7 µM (inactive) in assay [17]; 70.6 µM (inactive) in assay [18]. For the same compound, the GI50 in [19] is 31.9 µM (inactive).

Turning to `Cc1cc(S(=O)(=O)Nc2nnc3c(Cl)cc(C(F)(F)F)cn23)c(S)cc1Cl`, the GI50 in [1] is 51.6 µM (inactive); in assay [2], > 68.4 µM (inactive); in assay [3], 75 µM (inactive); in assay [4] it was 44.8 µM (inactive); in assay [5] it was > 86.3 µM (inactive); in assay [6], 99.8 µM (inactive). Also, the GI50 in [7] is 75.9 µM (inactive); in [8] it was 91 µM (inactive); in assay [9], 41.8 µM (inactive); in assay [10], > 100 µM (inactive); in assay [11], > 79.3 µM (inactive); in assay [12], 71.8 µM (inactive). The GI50 in assay [13] is 35.7 µM (inactive); in assay [14], 44.9 µM (inactive); in assay [15], > 96.6 µM (inactive); in assay [16] it was 4.88 µM (inactive); in assay [17] it was > 68.4 µM (inactive); in assay [18] it was > 100 µM (inactive). Moreover, the GI50 in [19] was 48.9 µM (inactive).

`COC(=O)[C@H](C)NC(=O)C1(CNC(=O)[C@H](C)NC(=O)OC(C)(C)C)Cc2ccccc2-c2ccccc2C1`: the GI50 was 19.4 µM (inactive) in assay [1]; 22.3 µM (inactive) in [2]; 19.3 µM (inactive) in assay [3]; 24.9 µM (inactive) in assay [4]; 3.85 µM (inactive) in assay [5]; 26.1 µM (inactive) in [6]. For the same compound, the GI50 in assay [7] is 16.7 µM (inactive); in [8], 19.1 µM (inactive); in assay [9] it was 19.7 µM (inactive); in assay [10], 7.59 µM (inactive); in [11], 19.6 µM (inactive); in assay [12], 21.4 µM (inactive). Also, the GI50 in assay [13] was 27 µM (inactive); in assay [14], 30.5 µM (inactive); in [15], 17.7 µM (inactive); in assay [16] it was 23.4 µM (inactive); in assay [17], 26.2 µM (inactive); in assay [18], 27 µM (inactive). Also, in [19], the GI50 was 16.7 µM (inactive).

`Nn1c(Sc2nc3ccccc3c(=O)n2N)nc2ccccc2c1=O`: the GI50 was 14.2 µM (inactive) in assay [1]; 13.8 µM (inactive) in assay [2]; 17.5 µM (inactive) in assay [3]; 15.2 µM (inactive) in assay [4]; 1.64 µM (inactive) in [5]; 4.04 µM (inactive) in [6]. Moreover, the GI50 is 1.63 µM (inactive) in [7]; 3.57 µM (inactive) in assay [8]; 19.5 µM (inactive) in [9]; 3.5 µM (inactive) in assay [10]; 8.49 µM (inactive) in assay [11]; 18.2 µM (inactive) in [12]. For the same compound, the GI50 in assay [13] is 2.48 µM (inactive); in assay [14], 20.4 µM (inactive); in assay [15], 5.75 µM (inactive); in assay [16], 11.6 µM (inactive); in assay [17] it was 2.29 µM (inactive); in [18], 21.2 µM (inactive). In assay [19], the GI50 is 11.5 µM (inactive).

`O=c1cc(CNC2CCCC2)[nH]c(=O)[nH]1`: the GI50 in assay [1], in assay [2], in assay [3], in assay [4], in [5] and in assay [6] was > 100 µM (inactive) in each case. Besides, the GI50 in [7], in assay [8], in assay [9], in [10], in assay [11] and in assay [12] was > 100 µM (inactive) in each case. For the same compound, the GI50 in assay [13], in [14], in assay [15], in [16], in assay [17] and in assay [18] was > 100 µM (inactive) throughout. In addition, the GI50 in assay [19] was > 100 µM (inactive).

On to `Cc1ccc(C2(c3ccc(Cl)cc3)c3ccccc3C3=NCCN32)cc1` (stereo not drawn), for which the GI50 in [1] was 11.1 µM (inactive); in assay [2] it was 4.6 µM (inactive); in [3], 14.1 µM (inactive); in assay [4] it was 5.58 µM (inactive); in assay [5], 12.8 µM (inactive); in assay [6] it was 3.37 µM (inactive). The GI50 in [7] is 3.66 µM (inactive); in [8], 3.67 µM (inactive); in [9] it was 6 µM (inactive); in assay [10], 7.16 µM (inactive); in assay [11], 15.1 µM (inactive); in [12], 1.59 µM (inactive). In addition, the GI50 was 6.08 µM (inactive) in assay [14]; 15.1 µM (inactive) in assay [15]; 12.2 µM (inactive) in assay [16]; 10.8 µM (inactive) in assay [17]; 5.43 µM (inactive) in assay [18]; 7.1 µM (inactive) in [19].

Regarding `CO/N=C(\C)c1cccc(Nc2nc3ccccc3c3occc23)c1`, the GI50 in assay [1] was 13.1 µM (inactive); in [2] it was 12.1 µM (inactive); in [3], 13.6 µM (inactive); in [4], 15.1 µM (inactive); in assay [5], 15.2 µM (inactive); in [6], 14.1 µM (inactive). The GI50 in assay [7] was 11.2 µM (inactive); in assay [8] it was 15.7 µM (inactive); in [9] it was 11.8 µM (inactive); in assay [10] it was 12.9 µM (inactive); in [11], 15.4 µM (inactive); in assay [12], 13 µM (inactive). Further, the GI50 in assay [13] is 13.6 µM (inactive); in assay [14] it was 14.1 µM (inactive); in assay [15], 13.3 µM (inactive); in assay [16], 15.3 µM (inactive); in assay [18], 12.7 µM (inactive); in assay [19] it was < 0.01 µM (active).

For `CCOC(=O)C(=[N+]=[N-])C(=O)Nc1nn2nnnc2c2ccccc12`, the GI50 in [1], in assay [2], in assay [3], in assay [4], in [5] and in assay [6] was > 100 µM (inactive) throughout. Moreover, the GI50 in assay [7], in assay [8], in assay [9], in assay [10], in assay [12] and in [13] was > 100 µM (inactive) throughout. The GI50 in [14] is > 100 µM (inactive); in [15] it was > 100 µM (inactive); in [16], 33.8 µM (inactive); in [17], > 100 µM (inactive); in [19], > 100 µM (inactive).
